The record followed here is publication PMC12040169 (PLOS Biology, 2025).

Each structure is given as a SMILES string.

The series in a line: in vitro. The following applies: human, hela cells, % viability.
Usually viability stands for a read-out of living cells in per cent, often relative to untreated cells. Regarding `C[C@@H]1CN(C(=O)c2nccc3ccccc23)C[C@H](C)O1` [CBK200233], the viability at 28.5 h, 10 µM was 92.8%. With `C[C@@H]1CN(C(=O)c2cc3ccccc3n2C)C[C@H](C)O1` [CBK200234], the viability at 28.5 h, 10 µM is 91.4%. With `O=C(NC1CCCC1)c1cccnc1` [CBK200236], the viability at 28.5 h, 10 µM stood at 111%. As for `O=C(Cc1c[nH]c2ccccc12)NC1CCCC1` [CBK200238], the viability at 28.5 h, 10 µM came to 76.1%. To `O=C(CCc1cccnc1)NC1CCCC1` [CBK200239] belongs 97.9%; to `O=C(OCc1ccccc1)N1CCN(c2ccccc2)CC1` [CBK200241], 116%; to `CC(OC(=O)N1CCN(c2ccccc2)CC1)c1ccccc1` (stereo not drawn) [CBK200243], 104%. `O=C(NCc1ccccc1)c1ccc(N2CCOCC2)nc1` [CBK200244]: the viability at 28.5 h, 10 µM worked out at 96.3%. To `CCN1CCN(C(=O)c2cccn2C)CC1` [CBK200248] belongs 84.7%. On to `CCN1CCN(C(=O)c2ccc3ccccc3n2)CC1` [CBK200249], for which the viability at 28.5 h, 10 µM was 133%.

For `CCN1CCN(C(=O)c2ccc(N(C)C)cc2)CC1` [CBK200252], the viability at 28.5 h, 10 µM was determined as 96.4%. In the case of `CCN1CCN(C(=O)Cc2cn(C)c3ccccc23)CC1` [CBK200254], the viability at 28.5 h, 10 µM was determined as 96.9%. Regarding `O=C(Cn1cnnn1)NCc1ccccc1` [CBK200255], the viability at 28.5 h, 10 µM is 83.6%.

On to `Cn1cncc1C(=O)NC1CCCC1` [CBK200256], for which the viability at 28.5 h, 10 µM stood at 95.5%. To `O=C(c1ccc2nccnc2c1)N1CCCc2ccccc21` [CBK200257] belongs 95.3%; to `O=C(COc1cccnc1)N1CCCc2ccccc21` [CBK200258], 92.5%.

`O=C(c1cncnc1)N1CCCc2ccccc21` [CBK200259]: the viability at 28.5 h, 10 µM worked out at 91.4%. To `CN1CCC(C(=O)N2CCCc3ccccc32)CC1` [CBK200260] belongs 95%; to `Cc1cc2ncn(CC(=O)NC3Cc4ccccc4C3)c2cc1C` [CBK200261], 97.3%. The figure for `CN1CCC(C(=O)NC2Cc3ccccc3C2)CC1` [CBK200263] is 118%; for `O=C(c1cnc2ccccc2n1)N1CCc2ccccc21` [CBK200267] it is 117%. With `O=C(COc1cccnc1)N1CCc2ccccc21` [CBK200268], the viability at 28.5 h, 10 µM was found to be 107%.

With `O=C(c1ccc2[nH]ccc2c1)N1CCc2ccccc21` [CBK200269], the viability at 28.5 h, 10 µM is 101%. To `Cc1cc2ncn(CC(=O)N3CCc4ccccc43)c2cc1C` [CBK200270] belongs 114%; to `O=C(CN1CCOCC1)N1CCc2ccccc21` [CBK200271], 96.3%. To `O=C(c1cnc2ccccc2c1)N1CCC(F)CC1` [CBK200273] belongs 102%; to `O=C(c1ccc2ccccc2n1)N1CCC(F)CC1` [CBK200276], 102%. To `O=C(c1nc2ccccc2[nH]1)N1CCC(F)CC1` [CBK200278] belongs 90.3%; to `O=C(c1ccncc1)N1CCc2ccccc21` [CBK200280], 93.7%. In the case of `COc1ccc(C(=O)N2CCc3ccccc32)c(OC)n1` [CBK200281], the viability at 28.5 h, 10 µM turned out to be 106%. To `O=C(c1n[nH]c2ccccc12)N1CCc2ccccc21` [CBK200282] belongs 90.6%; to `O=C(c1cnc2ccccc2c1)N1CCc2ccccc21` [CBK200284], 77.7%. To `C[C@@H]1CN(C(=O)OCc2ncc(F)cc2F)C[C@H](C)O1` [CBK200286] belongs 103%; to `Cc1ccc(CNC(=O)OCCN2CCN(C)CC2)n1C` [CBK200287], 86.8%.

For `Cc1ccc(NC(=O)c2cnccn2)c(C)n1` [CBK200291], the viability at 28.5 h, 10 µM worked out at 97.2%. To `COc1ncccc1C(=O)Nc1ccc(C)nc1C` [CBK200292] belongs 90.6%; to `Cc1ccc(NC(=O)c2ccc3ccccc3n2)c(C)n1` [CBK200293], 83.2%; to `Cc1ccc(NC(=O)c2nccc3ccccc23)c(C)n1` [CBK200294], 93.2%. To `Cc1ccc(NC(=O)c2cscn2)c(C)n1` [CBK200297] belongs 102%; to `Cc1ccc(NC(=O)Cc2cn(C)c3ccccc23)c(C)n1` [CBK200298], 61.9%. To `Cc1noc(C)c1NC(=O)c1ccnc2ccccc12` [CBK200302] belongs 96.3%.

As to `Cc1noc(C)c1NC(=O)c1cc2ccccc2[nH]1` [CBK200303], the viability at 28.5 h, 10 µM worked out at 95.6%.

Consider `Cc1noc(C)c1NC(=O)c1ccc2ccccc2n1` [CBK200309], for which the viability at 28.5 h, 10 µM turned out to be 101%.

As for `Cc1noc(C)c1NC(=O)c1nc2ccccc2[nH]1` [CBK200315], the viability at 28.5 h, 10 µM was 81.5%. To `O=C(c1ccncc1)N1Cc2ccccc2C1` [CBK200316] belongs 103%; to `Cc1ccc(C(=O)N2Cc3ccccc3C2)cn1` [CBK200318], 94.9%; to `O=C(c1ccc[nH]1)N1Cc2ccccc2C1` [CBK200319], 89.4%. For the compound `O=C(Cc1cccnc1)N1Cc2ccccc2C1` [CBK200320], the viability at 28.5 h, 10 µM came to 90.5%. On to `O=C(Cc1c[nH]c2ccccc12)N1Cc2ccccc2C1` [CBK200321], for which the viability at 28.5 h, 10 µM came out at 103%. For the compound `O=C(c1ccc2nc[nH]c2c1)N1Cc2ccccc2C1` [CBK200322], the viability at 28.5 h, 10 µM turned out to be 103%.

Consider `O=C(c1cnccc1C(F)(F)F)N1Cc2ccccc2C1` [CBK200323], for which the viability at 28.5 h, 10 µM turned out to be 105%. The figure for `COc1ncccc1C(=O)N1Cc2ccccc2C1` [CBK200324] is 101%; for `O=C(c1csnn1)N1Cc2ccccc2C1` [CBK200325] it is 111%.

For the compound `Cc1nc(C)c(C(=O)N2Cc3ccccc3C2)s1` [CBK200326], the viability at 28.5 h, 10 µM was 95.9%. As to `O=C(c1ccno1)N1Cc2ccccc2C1` [CBK200327], the viability at 28.5 h, 10 µM was 97%. Consider `Cc1cc(C(=O)N2Cc3ccccc3C2)n[nH]1` [CBK200328], for which the viability at 28.5 h, 10 µM came to 100%. In the case of `Cn1cncc1C(=O)N1Cc2ccccc2C1` [CBK200329], the viability at 28.5 h, 10 µM was 106%.

In the case of `O=C(c1ccc2[nH]nnc2c1)N1CCc2ccccc2C1` [CBK200332], the viability at 28.5 h, 10 µM was determined as 103%. To `Cc1noc(C)c1C(=O)N1CCc2ccccc2C1` [CBK200333] belongs 103%; to `O=C(Cc1ccccn1)N1CCc2ccccc2C1` [CBK200334], 104%. In the case of `O=C(Cn1cnnn1)N1CCc2ccccc2C1` [CBK200335], the viability at 28.5 h, 10 µM worked out at 101%. Regarding `COc1ncccc1C(=O)N1CCc2ccccc2C1` [CBK200336], the viability at 28.5 h, 10 µM turned out to be 96.9%.

Take `Cn1c(C(=O)N2CCc3ccccc3C2)cc2ccccc21` [CBK200337]: the viability at 28.5 h, 10 µM was 96.7%. The figure for `CCOc1ccsc1C(=O)N1CCc2ccccc2C1` [CBK200339] is 95.1%.

With `Cc1cc(C(=O)N2CCCc3ccccc32)n[nH]1` [CBK200346], the viability at 28.5 h, 10 µM was 92%.

Consider `O=C(c1cscn1)N1CCCc2ccccc21` [CBK200348], for which the viability at 28.5 h, 10 µM turned out to be 102%. On to `Cn1cc(CC(=O)N2CCCc3ccccc32)c2ccccc21` [CBK200349], for which the viability at 28.5 h, 10 µM came to 64.8%.

On to `O=C(Cc1ccncc1)NC1Cc2ccccc2C1` [CBK200351], for which the viability at 28.5 h, 10 µM is 94.1%.

For `O=C(NC1Cc2ccccc2C1)c1nccc2ccccc12` [CBK200356], the viability at 28.5 h, 10 µM was 97%. On to `O=C(NC1Cc2ccccc2C1)c1ccno1` [CBK200358], for which the viability at 28.5 h, 10 µM came to 99.4%. As for `CN(C)c1ccc(CC(=O)NC2Cc3ccccc3C2)cc1` [CBK200360], the viability at 28.5 h, 10 µM was 105%. On to `Cn1cncc1C(=O)NC1Cc2ccccc2C1` [CBK200362], for which the viability at 28.5 h, 10 µM came to 107%. To `O=C(c1ccc2[nH]nnc2c1)N1CCc2ccccc21` [CBK200365] belongs 102%; to `O=C(Cc1c[nH]c2ccccc12)N1CCc2ccccc21` [CBK200366], 107%. The figure for `O=C(Cn1cnnn1)N1CCc2ccccc21` [CBK200367] is 97.4%. For `C[C@@H]1CN(C(=O)c2ccc3[nH]nnc3c2)C[C@H](C)O1` [CBK200369], the viability at 28.5 h, 10 µM was found to be 104%. The figure for `CCN1CCN(C(=O)c2c(C)noc2C)CC1` [CBK200374] is 93.6%; for `CCN1CCN(C(=O)Cc2cccnc2)CC1` [CBK200375] it is 92.3%; for `Cc1ccc(NC(=O)COc2cccnc2)c(C)n1` [CBK200379] it is 102%.

For the compound `Cc1noc(C)c1NC(=O)c1cncnc1` [CBK200382], the viability at 28.5 h, 10 µM was determined as 112%. To `O=C(CN1CCOCC1)N1CCC(F)CC1` [CBK200383] belongs 83.5%; to `O=C(c1cncnc1)N1CCC(F)CC1` [CBK200384], 92.1%. The figure for `Cc1ccc(NC(=O)c2cc(C)[nH]n2)c(C)n1` [CBK200387] is 83.8%. The figure for `Cc1noc(C)c1NC(=O)c1cnccn1` [CBK200390] is 89.9%; for `Cc1noc(C)c1NC(=O)Cc1cccnc1` [CBK200391] it is 96.6%; for `Cc1ccncc1C(=O)Nc1c(C)noc1C` [CBK200393] it is 80.7%.

As for `Cc1noc(C)c1NC(=O)c1ccno1` [CBK200394], the viability at 28.5 h, 10 µM came out at 87%. Consider `Cc1noc(C)c1NC(=O)c1cncn1C` [CBK200396], for which the viability at 28.5 h, 10 µM amounted to 115%. On to `Cc1ccncc1C(=O)N1CCc2ccccc21` [CBK200400], for which the viability at 28.5 h, 10 µM is 109%. The figure for `COc1ncccc1C(=O)N1CCc2ccccc21` [CBK200402] is 91.5%; for `O=C(c1nccc2ccccc12)N1CCc2ccccc21` [CBK200405] it is 93.5%. The figure for `Cn1c(C(=O)N2CCc3ccccc32)cc2ccccc21` [CBK200406] is 110%; for `O=C(c1nc2ccccc2[nH]1)N1CCc2ccccc21` [CBK200411] it is 87.8%.
